Source: patent publication US20250129096A1, “ANNULATED 2-AMINO-3-CYANO THIOPHENES AND DERIVATIVES FOR THE TREATMENT OF CANCER” (Boehringer Ingelheim Int'l GmbH Corp., priority 2021, published 2025)
Converted amounts (≈) assume the structure as drawn. Where two headings read alike, the source gives them in different places.

Columns and labels:
KRAS G12D Ba/F3 cells = KRAS G12D Ba/F3 cells (Homo sapiens, UniProt P01116, G12D, cells depend on it); experiment: Ba/F3 proliferation assay, KRAS G12D; type: cell-based; settings: 72 h, AlamarBlue; read-out: KRAS G12D Ba/F3 IC50
Description: (§1) To generate KRASG12-dependent Ba/F3 models, Ba/F3 cells are transduced with retroviruses containing vectors that harbor KRASG12 isoforms. Platinum-E cells (Cell Biolabs) are used for retrovirus packaging. Retrovirus is added to Ba/F3 cells. To ensure infection, 4 μg/mL polybrene is added and cells are spinfected. […] Cells with an infection efficiency of 10% to 20% are further cultivated and puromycin selection with 1 μg/mL is initiated. As a control, parental Ba/F3 cells are used to show selection status. Selection is considered successful when parental Ba/F3 cells cultures died. To evaluate the transforming potential of KRASG12 mutations, the growth medium is no longer supplemented with IL-3. Ba/F3 cells harboring the empty vector are used as a control. Approximately ten days before conducting the experiments, puromycin is left out. […] All treatments are performed in technical duplicates. […] AlamarBlue™(ThermoFisher), a viability stain, is added and fluorescence measured in the PerkinElmer Envision HTS Multilabel Reader. The raw data are imported into and analyzed with the Boehringer Ingelheim proprietary software MegaLab (curve fitting based on the program PRISM, GraphPad Inc.).

KRAS G12C Ba/F3 cells = KRAS G12C Ba/F3 cells (Homo sapiens, UniProt P01116, G12C, cells depend on it); experiment: Ba/F3 proliferation assay, KRAS G12C; type: cell-based; settings: 72 h, AlamarBlue; read-out: KRAS G12C Ba/F3 IC50
Description: as §1

[1] = test system: AsPC-1 cells (pancreatic cancer, G12D); experiment: AsPC-1 CTG proliferation assay (120 h); type: cell-based; settings: Homo sapiens, ASPC1, CellTiter-Glo
Description: The CTG assay is designed to measure quantitatively the proliferation of AsPC-1 cells (ATCC […]), using the CellTiter Glow Assay Kit (Promega G7571). Cells are grown in RPMI medium (ATCC) supplemented with Fetal Calf Serum (Life Technologies, Gibco BRL, Cat. No. 10270-106). On “day 0” 2000 AsPC-1 cells are seeded in 60 μL RPMI ATCC+10% FCS+ Penstrep in a 384-well plate, flat and clear bottom (Greiner, PNr. 781091). Cells are then incubated in the plates at 37° C. in a CO2 incubator overnight. On day 1, compounds (10 mM stock in DMSO) are added with the ECHO acoustic liquid handler system (Beckman Coulter), including DMSO controls. Plates are incubated for 120 h, and cell viability is measured using CellTiter-Glo luminescent cell viability reagent (Promega product code G7570). Viability (stated as percent of control) is defined as relative luminescence units RLU of each well divided by the RLU of cells in DMSO controls. IC50 values are determined from viability measurements by non-linear regression using a four-parameter model.

[2] = test system: SK-CO-1 cells (CRC, G12V); experiment: SK-CO-1 CTG proliferation assay (120 h); type: cell-based; settings: Homo sapiens, CellTiter-Glo
Description: SK—CO-1 cells (ATCC HTB-39) are dispensed into 384-well plates, flat and clear bottom (Greiner, PNr. 781091) at a density of 500 cells per well in 60 μL EMEM (Sigma M5650)+10% Fetal Calf Serum (HyClone, PNr.: SH30084.03) and incubated at 37° C. in a CO2 incubator overnight. The next day, compounds (10 mM stock in DMSO) are added with the ECHO acoustic liquid handler system (Beckman Coulter), including DMSO controls. Plates are incubated for 120 h, and cell viability is measured using CellTiter-Glo luminescent cell viability reagent (Promega product code G7570). Viability (stated as percent of control) is defined as relative luminescence units RLU of each well divided by the RLU of cells in DMSO controls. IC50 values are determined from viability measurements by non-linear regression using a four-parameter model.

[3] = Metabolic (microsomal) stability assay, HLM; type: in vitro ADME; settings: human liver microsomes, 1 μM test compound, predicted clearance as percent of liver blood flow
Description: The metabolic degradation of the test compound is assayed at 37° C. with pooled liver microsomes (mouse (MLM), rat (RLM) or human (HLM)). The final incubation volume of 48 μL per time point contains TRIS buffer (pH 7.5; 0.1 M), magnesium chloride (6.5 mM), microsomal protein (0.5 mg/mL for mouse/rat, 1 mg/mL for human specimens) and the test compound at a final concentration of 1 μM. Following a short preincubation period at 37° C., the reactions are initiated by addition of 12 μL beta-nicotinamide adenine dinucleotide phosphate, reduced form (NADPH, 10 mM) and terminated by transferring an aliquot into solvent after different time points (0, 5, 15, 30, 60 min). Additionally, the NADPH-independent degradation is monitored in incubations without NADPH, terminated at the last time point by addition of acetonitrile. The quenched incubations are pelleted by centrifugation (4,000 rpm, 15 min). An aliquot of the supernatant is assayed by LC-MS/MS to quantify the concentration of parent compound in the individual samples.
In vitro intrinsic clearance (CLint, in vitro) is calculated from the time course of the disappearance of the test drug during the microsomal incubation. Each plot is fitted to the first-order elimination rate constant as C(t)=C0*exp(−ke*t), where C(t) and C0 are the concentration of unchanged test drug at incubation time t and that at preincubation and ke is the disappearance rate constant of the unchanged drug. Subsequently, CLint, in vitro (μL min^−1·amount protein) values are converted to predicted CLint, in vivo (mL min^−1 kg^−1) from incubation parameters according to the equation CLint, in vivo=CLint, in vitro×(incubation volume (ml)/amount protein (mg))×(amount protein (mg)/g liver tissue)×(liver weight/body wt.). For better across species comparison the predicted clearance is expressed as percent of the liver blood flow [% QH] (mL min^−1 kg^−1) in the individual species. In general, high stability (corresponding to low % QH) of the compounds across species is desired.

[4] = Solubility measurement (DMSO solution precipitation method); type: physicochemical; settings: aqueous buffer, kinetic from dmso stock, ambient temperature
Description: The DMSO solution is diluted with an aqueous medium (McIlvaine buffer with pH=4.5 or 6.8) to a final concentration of 250 μM. After 24 h of shaking at ambient temperature a potentially formed precipitate is removed by filtration. The concentration of the test compound in the filtrate is determined by LC-UV methods by calibrating the signal to the signal of a reference solution with complete dissolution of the test compound in acetonitrile/water (1:1) with known concentration.

[5] = McIlvaine buffer pH 4.5, 24 h, read-out: solubility pH 4.5
[6] = McIlvaine buffer pH 6.8, 24 h, read-out: solubility pH 6.8

Sequence of KRAS G12C Ba/F3 cells (P01116 whole entry G12C): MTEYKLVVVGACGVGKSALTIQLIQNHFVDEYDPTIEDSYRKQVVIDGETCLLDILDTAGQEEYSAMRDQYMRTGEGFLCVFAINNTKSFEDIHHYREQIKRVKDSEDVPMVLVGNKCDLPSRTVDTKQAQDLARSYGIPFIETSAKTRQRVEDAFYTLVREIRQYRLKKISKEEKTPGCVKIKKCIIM
Sequence of KRAS G12D Ba/F3 cells (P01116 whole entry G12D, canonical isoform): as the sequence (P01116 whole entry G12C) above, with C12D counted along it

Compound | GI50 (KRAS G12D Ba/F3 cells) [nM] | GI50 (KRAS G12C Ba/F3 cells) [nM] | IC50 [1] [nM] | IC50 [2] [nM] | HLM QH [3] [%] | solubility at 24 h [4, 5] [µg/mL] | solubility at 24 h [4, 6] [µg/mL]
C[C@H](Oc1nccc(-c2onc3c2CCC[C@@]32CCCc3sc(N)c(C#N)c32)n1)[C@@H]1C[C@@H]2C[C@@H]2N1C [Ih-1] | 43 | 72 | 4210 | 398 | >88 | > 110 | 93 (≈ 185 µM)
C[C@H]1CNCCCN1c1nccc(-c2noc3c2CC(F)(F)CC32CCCc3sc(N)c(C#N)c32)n1 (some centres unmarked) [IIb-2] | 798 | 507 | 5110 | 6240 | 39 | 53 (≈ 104 µM) | 27 (≈ 52.8 µM)
C[C@H]1CNCCCN1c1nccc(-c2noc3c2OCCC32CCCc3sc(N)c(C#N)c32)n1 (some centres unmarked) [IIb-7] | 123 | 131 | 2800 | 455 | <24 | > 103 | > 100
CCN1[C@H]2C[C@H]2C[C@H]1[C@H](C)Oc1nccc(-c2onc3c2CCC[C@@]32CCCc3sc(N)c(C#N)c32)n1 [Ie-3] | 33 | 49 | 8030 | 817 | >88 | > 125 | > 123
C[C@H](Oc1nccc(-c2noc3c2CCC[C@@]32CCCc3sc(N)c(C#N)c32)n1)[C@@]1(C)CCCN1C [IIe-1] | 155 | 254 | 5520 | 1030 | >88 | > 115 | > 114
C[C@@H]1NCCCN(c2nccc(-c3onc4c3CCC[C@@]43CCCc4sc(N)c(C#N)c43)n2)[C@H]1C [Ib-2] | 101 | 126 | 5970 | 457 | 51 |  | 
C[C@H]1CNCCN1c1nccc(-c2noc3c2CCC[C@@]32CCCc3sc(N)c(C#N)c32)n1 [IIf-1] |  |  | 1510 | 600 | 29 |  | 
CO[C@@H]1C[C@@H]([C@H](C)Oc2nccc(-c3onc4c3CCC[C@@]43CCCc4sc(N)c(C#N)c43)n2)N(C)C1 [Ie-1] | 28 | 43 | 5480 | 2520 | >88 |  | 

Continued by falling GI50 (KRAS G12D Ba/F3 cells), values first:

GI50 (KRAS G12D Ba/F3 cells) [nM] | GI50 (KRAS G12C Ba/F3 cells) [nM] | IC50 [1] [nM] | IC50 [2] [nM] | HLM QH [3] [%] | solubility at 24 h [4, 5] [µg/mL] | solubility at 24 h [4, 6] [µg/mL] | Compound
4670 | 8510 | > 25000 | 7920 |  | 89 (≈ 182 µM) | < 1 | C[C@H](Oc1nccc(-c2onc3c2CCC[C@@]32CCCc3sc(N)c(C#N)c32)n1)[C@@H]1C[C@@H]2C[C@@H]2N1 [If-2]
469 | 666 | 3570 | 2690 | <24 | 57 (≈ 116 µM) | 32 (≈ 65.4 µM) | CC1Cc2c(-c3ccnc(N4CCCNC[C@@H]4C)n3)noc2C2(CCCc3sc(N)c(C#N)c32)C1 (some centres unmarked) [IIb-1]
211 | 295 | > 25000 | 930 | 34 | > 104 | 95 (≈ 199 µM) | C[C@H]1CNCCCN1c1ncnc(-c2onc3c2CCC[C@@]32CCCc3sc(N)c(C#N)c32)n1 [Ib-4]
174 | 485 | 4130 | 2390 |  |  |  | C[C@H]1CNCCCN1c1nccc(-c2noc3c2CSCC32CCCc3sc(N)c(C#N)c32)n1 (some centres unmarked) [IIb-4]
77 | 134 | 6680 | 2730 | 25 |  |  | C[C@H]1CNCCCN1c1nccc(-c2onc3c2CCC[C@@]32CCCc3sc(N)c(C#N)c32)n1 [If-1]
66 | 118 | 5860 | 798 | 63 |  |  | CC(Oc1nccc(-c2onc3c2CCC[C@@]32CCCc3sc(N)c(C#N)c32)n1)C12CCCN1CCC2 (some centres unmarked) [Ie-5]
66 | 155 | 2560 | 1040 | >88 | > 125 | 41 (≈ 80.6 µM) | C[C@H](Oc1nccc(-c2onc3c2CCC[C@@]32CCCc3sc(N)c(C#N)c32)n1)[C@@H]1C[C@@H](F)CN1C [Ie-2]
32 | 88 | 3620 | 563 | <24 | 92 (≈ 193 µM) | 51 (≈ 107 µM) | C[C@H]1CNCCCN1c1nccc(-c2noc3c2CCC[C@@]32CCCc3sc(N)c(C#N)c32)n1 (single isomer, unassigned) [IIb-5]
27 | 42 | 3570 | 4680 | >88 | > 117 | > 108 | C[C@H]1[C@@H]2CCCN2CCCN1c1nccc(-c2onc3c2CCC[C@@]32CCCc3sc(N)c(C#N)c32)n1 [Id-1]
16 | 23 | 650 | 285 | 64 | > 117 | > 120 | C[C@H](Oc1ccnc(-c2noc3c2CCC[C@@]32CCCc3sc(N)c(C#N)c32)n1)[C@@H]1CCCN1C [IIb-3]
